Measured values taken from patent US12459918B2, “Isoquinolinone derivatives serving as rock protein kinase inhibitors and use thereof” (GUANGZHOU OCUSUN OPHTHALMIC BIOTECHNOLOGY CO., LTD., priority 2019, dated 2025).

Key:
[1] = test system: New Zealand rabbits with normal intraocular pressure; experiment: Ocular stimulation response examination by hand-held slit lamp, 14 days eye-drop administration; type: in vivo; conditions: 14 consecutive days, 50 μL/eye/day
Protocol: 42 male New Zealand rabbits were randomly divided into 7 groups, with 6 rabbits per group. Animals were randomly divided according to body weight Animals in 1-7 groups were eye-dropped with normal saline in the left eye and with solvent/control sample/test sample in the right eye respectively by a volume of 50 μL/eye, once per day for 14 consecutive days, and the day of administration was recorded as Day 1. The intraocular pressure of the animals was measured before Day 1 administration and in 1, 2, 4, 6, 8 and 10 hours after Day 1 administration, respectively (Table 8).
Before the experiment (Day 2/Day 1), before daily administration during the administration (Days 1-14), and in 1, 2, 4, 24, 48 and 72 hours after the last administration (Day 14), the eyes of animals were examined for ocular stimulation response and fluorescein sodium by a hand-held slit lamp (scoring by referring to the scoring criteria).
Before the experiment (Day 2/Day 1), before the first daily administration (Days 1-14) during the administration, and in 1, 2, 4, 24, 48 and 72 hours after the last administration, the eyes of animals were examined for ocular stimulation response by a hand-held slit lamp. The scoring criteria were as follows. […]

[2] = Toxicokinetics experiment: active compounds in plasma after 14 days of continuous administration; type: in vivo, New Zealand rabbits; conditions: for Concentration of active compounds in plasma, Group 1 / Concentration of active compounds in plasma, Group 2: 8.0 mg/mL eye-drop, after 14 days of continuous administration
Protocol: Experimental Example 5. Toxicokinetics Experiment
The production rate of active drug ingredients and the exposure amount of active drug ingredients of the compound in plasma were detected after 14 days of continuous administration.
Male New Zealand rabbits, aged 3-6 months, weighted 2.0-5.0 kg, purchased from PizhouDongfang Breeding Co. Ltd.
After 14 days of continuous administration, blood samples from the group administrated with compound 63 (8.0 mg/mL) were collected at 0 hour (before administration) and in 0.5, 1, 2, 4, 8, and 24 hours after administration on Days 14-15. About 0.8 mL of whole blood was collected from the auricular artery or the saphenous vein of the hind limb (or other appropriate sites) of toxicokinetics experiment animals, and was placed in labeled collection tubes using ethylenediaminetetraacetic acid dipotassium (K2EDTA) as an anticoagulant. Plasma was obtained by centrifugation for 10 minutes at 3000 rpm and under the condition of 2° C. to 8° C. in 60 minutes after blood collection. All samples were quantitatively detected for the content of the administered compounds in plasma of the experimental animals by liquid chromatography-coupled mass spectrometry (LC-MS) and mass spectrometry (MS) technology.

[3] = Time 0.00 hour (before administration)

## Cc1ccc(C(=O)OCn2cc(C)c3c(S(=O)(=O)N4CC[C@H](N)C4)cccc3c2=O)c(C)c1 [Compound 63]
[1]; concentration range of 0.25-4 mg/mL
  Evaluation of ocular stimulation: no stimulation
[2]; [3]
  Concentration of active compounds in plasma, Group 1: BQL
  Concentration of active compounds in plasma, Group 2: BQL
[2]; Time 8.00 hour
  Concentration of active compounds in plasma, Group 1: BQL
  Concentration of active compounds in plasma, Group 2: BQL
[2]; Time 24.0 hour
  Concentration of active compounds in plasma, Group 1: BQL
  Concentration of active compounds in plasma, Group 2: BQL
[2]; 8 hours after administration, high dose of 8 mg/mL
  Metabolite concentration in plasma: below the detection limit

## C[C@H]1CNCCCN1S(=O)(=O)c1cccc2cncc(F)c12 [Compound K-115, reference compound]
[1]; 4 mg/mL
  Evaluation of ocular stimulation: no stimulation
